Test: xn = mol fraction of the nth substance listed
Conditions: 101 kPa, Liquid

CCn1cc[n+](C)c1.O=C([O-])C(F)(F)F [1-ethyl-3-methylimidazolium trifluoroacetate] + O
Conditions	mass density [kg/m3]	viscosity [mPa·s]
278.15 K, x2 = 0	1306.89	78
278.15 K, x2 = 0.2042	–	56
278.15 K, x2 = 0.205	1299.84	–
278.15 K, x2 = 0.3952	–	40
278.15 K, x2 = 0.3983	1291.27	–
278.15 K, x2 = 0.5808	1278	25
278.15 K, x2 = 0.7565	–	16
278.15 K, x2 = 0.7573	1248.38	–
278.15 K, x2 = 0.842	1216.87	–
278.15 K, x2 = 0.9256	1151.47	6
278.15 K, x2 = 0.9667	1086.88	–
278.15 K, x2 = 0.9912	1026.68	–
288.15 K, x2 = 0	1298.81	48
288.15 K, x2 = 0.2042	–	35
288.15 K, x2 = 0.205	1291.82	–
288.15 K, x2 = 0.3952	–	26
288.15 K, x2 = 0.3983	1283.25	–
288.15 K, x2 = 0.5808	1269.93	17
288.15 K, x2 = 0.7565	–	11
288.15 K, x2 = 0.7573	1240.21	–
288.15 K, x2 = 0.842	1208.86	–
288.15 K, x2 = 0.9256	1144.67	5
288.15 K, x2 = 0.9667	1082.51	–
288.15 K, x2 = 0.9912	1024.93	–
298.15 K, x2 = 0	1290.8	32
298.15 K, x2 = 0.2042	–	24
298.15 K, x2 = 0.205	1283.85	–
298.15 K, x2 = 0.3952	–	18
298.15 K, x2 = 0.3983	1275.26	–
298.15 K, x2 = 0.5808	1261.85	12
298.15 K, x2 = 0.7565	–	8
298.15 K, x2 = 0.7573	1231.95	–
298.15 K, x2 = 0.842	1200.76	–
298.15 K, x2 = 0.9256	1137.65	4
298.15 K, x2 = 0.9667	1077.55	–
298.15 K, x2 = 0.9912	1022.15	–
308.15 K, x2 = 0	1282.85	23
308.15 K, x2 = 0.2042	–	17
308.15 K, x2 = 0.205	1275.92	–
308.15 K, x2 = 0.3952	–	14
308.15 K, x2 = 0.3983	1267.29	–
308.15 K, x2 = 0.5808	1253.77	9
308.15 K, x2 = 0.7565	–	6
308.15 K, x2 = 0.7573	1223.66	–
308.15 K, x2 = 0.842	1192.57	–
308.15 K, x2 = 0.9256	1130.4	3
308.15 K, x2 = 0.9667	1072.06	–
308.15 K, x2 = 0.9912	1018.5	–
318.15 K, x2 = 0	1274.95	17
318.15 K, x2 = 0.2042	–	13
318.15 K, x2 = 0.205	1268.04	–
318.15 K, x2 = 0.3952	–	10
318.15 K, x2 = 0.3983	1259.34	–
318.15 K, x2 = 0.5808	1245.67	8
318.15 K, x2 = 0.7565	–	5
318.15 K, x2 = 0.7573	1215.3	–
318.15 K, x2 = 0.842	1184.27	–
318.15 K, x2 = 0.9256	1122.93	3
318.15 K, x2 = 0.9667	1066.08	–
318.15 K, x2 = 0.9912	1014.11	–
328.15 K, x2 = 0	1267.12	13
328.15 K, x2 = 0.2042	–	10
328.15 K, x2 = 0.205	1260.21	–
328.15 K, x2 = 0.3952	–	8
328.15 K, x2 = 0.3983	1251.41	–
328.15 K, x2 = 0.5808	1237.55	6
328.15 K, x2 = 0.7565	–	5
328.15 K, x2 = 0.7573	1206.84	–
328.15 K, x2 = 0.842	1175.86	–
328.15 K, x2 = 0.9256	1115.2	3
328.15 K, x2 = 0.9667	1059.66	–
328.15 K, x2 = 0.9912	1009.07	–
338.15 K, x2 = 0	1259.35	10
338.15 K, x2 = 0.2042	–	8
338.15 K, x2 = 0.205	1252.42	–
338.15 K, x2 = 0.3952	–	7
338.15 K, x2 = 0.3983	1243.49	–
338.15 K, x2 = 0.5808	1229.41	6
338.15 K, x2 = 0.7565	–	4
338.15 K, x2 = 0.7573	1198.32	–
338.15 K, x2 = 0.842	1167.33	–
338.15 K, x2 = 0.9256	1107.28	2
338.15 K, x2 = 0.9667	1052.83	–
338.15 K, x2 = 0.9912	1002.87	–
348.15 K, x2 = 0	1251.63	9
348.15 K, x2 = 0.2042	–	7
348.15 K, x2 = 0.205	1244.66	–
348.15 K, x2 = 0.3952	–	6
348.15 K, x2 = 0.3983	1235.59	–
348.15 K, x2 = 0.5808	1221.23	5
348.15 K, x2 = 0.7565	–	4
348.15 K, x2 = 0.7573	1189.98	–
348.15 K, x2 = 0.842	1158.69	–
348.15 K, x2 = 0.9256	1099.05	2
348.15 K, x2 = 0.9667	1045.56	–
348.15 K, x2 = 0.9912	997.23	–
